Results on 11 molecules are retold here after patent publication US4642355A, “Proline derivatives” (Otsuka Pharmaceutical Factory, Inc., priority 1984, dated 1987).

In this experiment the test system is angiotensin-converting enzyme (ACE). The experiment is described as follows: ACE inhibitory effect in normotensive rats (inhibition of pressor response to angiotensin I). The class given is in vivo. The settings on record: 1 mg/kg directly to the stomach, male Wistar rats, urethane anesthesia, AI/AII ratio. As to the method:
ACE Inhibitory effect in normotensive rats
Male Wistar rats weighing 200 to 400 g were anesthetized by the intraperitoneal injection of urethane (1.25 g/kg) and held in the supine position. The degree of inhibition of pressor response to angiotensin (A) I was determined using these rats. The blood pressure was measured with a femoral artery cannula connected to a transducer (product of Nihon Kohden Kabushiki Kaisha, Japan, Model MPU-0.5-290-0-III) and recorded in terms of a mean blood pressure value through a carrier amplifier (product of Nihon Kohden Kabushiki Kaisha, Japan, Model RP-5) on a multipurpose polygraph (product of Nihon Kohden Kabushiki Kaisha, Japan, Model RM-85). The rats were set in an experimental device and left therein for 1 hour to stabilize the hemodynamics. Then experiments were commenced. Since the magnitude of the pressor response to AI varies with time, the ratio of the responses to AI and AII (AI/AII ratio) was used to determine the magnitude of the pressor response to AI which ratio remained more constant. Through the cannulated femoral vein, AI (300 ng/kg) was administered first and AII (300 ng/kg) was given in 5 minutes to measure an AI/AII ratio. At 30 minutes after the first administration of AI, AI (300 ng/kg) was similarly administered and AII (300 ng/kg) was given in 5 minutes, followed by measuring an AI/AII ratio. This procedure was repeated until a constant value of AI/AII ratio was obtained. (The mean value of AI/AII ratios each resulting from the repeated procedure is represented as "C" in an equation to be shown later). At 10 minutes after the final administration of AII, an aqueous solution containing 1 mg/kg of each test compound was given directly to the stomach through a vinyl tube. At 10 minutes after administration of the test compound, AI (300 ng/kg) was given and at 5 minutes later, AII (300 ng/kg) was administered, followed by measurement of the AI/AII ratio (which was represented as "E" in the following equation). An ACE percent inhibition was calculated according to the equation indicated below. [formula]
Subsequently at each time of 60, 120 and 240 minutes after the administration of the test compound, AI (300 ng/kg) was given in the same manner as above and AII (300 ng/kg) was administered in 5 minutes, whereupon an ACE percent inhibition was calculated in the same way.
The results are shown below in Table 26 in which the test compounds listed are those prepared in the Examples indicated therein.

[1] abbreviates: 15 min. after administration, 1 mg/kg.
Setting [2] is: 60 min. after administration, 1 mg/kg.
The mark [3] stands for this setting: 120 min. after administration, 1 mg/kg.
Where [4] appears, read: 240 min. after administration, 1 mg/kg.

The structures appear in SMILES notation. Structures can show the parent of a compound that is named as a salt.

In the case of `CCCCCC(SC[C@H](NC(C)C(=O)N1CCC[C@H]1C(=O)O)C(=O)OCC)C(=O)OCC` (stereo partly drawn) [Ex. No. 67*^1], the “ACE Percent Inhibition, mean ± SD” value under setting [1] was determined as 23 ± 35%; the “ACE Percent Inhibition, mean ± SD” value (15 min. after administration, listed as Ex. No. 67*^2, 1 mg/kg) was determined as 46 ± 29%; the “ACE Percent Inhibition, mean ± SD” value under setting [2] was 55 ± 11%; the “ACE Percent Inhibition, mean ± SD” value (60 min. after administration, listed as Ex. No. 67*^2, 1 mg/kg) stood at 76 ± 10%; the “ACE Percent Inhibition, mean ± SD” value under setting [3] came out at 59 ± 4%; the “ACE Percent Inhibition, mean ± SD” value (120 min. after administration, listed as Ex. No. 67*^2, 1 mg/kg) is 61 ± 14%. For the same molecule, the “ACE Percent Inhibition, mean ± SD” value runs as follows: under setting [4], 63 ± 9%; (240 min. after administration, listed as Ex. No. 67*^2, 1 mg/kg) 65 ± 7%.
For `CCCCCCC(SC[C@H](NC(C)C(=O)N1CCC[C@H]1C(=O)O)C(=O)OCC)C(=O)OCC` (stereo partly drawn) [Ex. No. 71*^4], the “ACE Percent Inhibition, mean ± SD” value is, setting by setting: under setting [1], 47 ± 24%; under setting [2], 69 ± 6%; under setting [3], 70 ± 10%; under setting [4], 60 ± 10%.
Turning to `CCCCCCC(SC[C@H](NC(C)C(=O)N1CCC[C@H]1C(=O)O)C(=O)OCC)C(=O)OCC` (stereo partly drawn) [Ex. No. 71*^ 3], the “ACE Percent Inhibition, mean ± SD” value was 39 ± 34% under setting [1], 65 ± 14% under setting [2], 60 ± 2% under setting [3] and 67 ± 3% under setting [4].
As to `CCCCCCSC[C@H](NC(C)C(=O)N1CCC[C@H]1C(=O)O)C(=O)OCC` (stereo partly drawn) [Example 5, N-[(R)-1-ethoxycarbonyl-2-hexylthioethyl]-alanyl-(S)-proline(β-isomer) and L-arginine salt thereof], the “ACE Percent Inhibition, mean ± SD” value amounted to 28 ± 14% (15 min. after administration), 54 ± 3% (60 min. after administration), 54 ± 17% (120 min. after administration) and 55 ± 7% (240 min. after administration).
Take `CCCCCCCSC[C@H](NC(C)C(=O)N1CCC[C@H]1C(=O)O)C(=O)OCC` (stereo partly drawn) [Example 18, N-[(R)-1-ethoxycarbonyl-2-heptylthioethyl]-alanyl-(S)-proline (β-isomer) and maleate]: the “ACE Percent Inhibition, mean ± SD” value by setting is: (15 min. after administration) 77 ± 8%; (60 min. after administration) 75 ± 23%; (120 min. after administration) 84 ± 10%; (240 min. after administration) 63 ± 6%.
Take `CCOC(=O)[C@H](CSCC1CCCCC1)NC(C)C(=O)N1CCC[C@H]1C(=O)O` (stereo partly drawn) [Example 21]: the “ACE Percent Inhibition, mean ± SD” value is listed as 22 ± 25% (15 min. after administration), 38 ± 29% (60 min. after administration), 58 ± 15% (120 min. after administration) and 56 ± 14% (240 min. after administration).
Taken in the same sequence, the figures for `CCOC(=O)[C@H](CSCC=C(C)C)NC(C)C(=O)N1CCC[C@H]1C(=O)O` (stereo partly drawn) [Example 32] were 15 ± 9%, 31 ± 7%, 33 ± 9% and 29 ± 8%.
Turning to `CCCCCCCSC[C@H](NC(C)C(=O)N1CCC[C@H]1C(=O)OC)C(=O)OCC` (stereo partly drawn) [Example 39], the “ACE Percent Inhibition, mean ± SD” value (15 min. after administration) stood at 39 ± 59%; the “ACE Percent Inhibition, mean ± SD” value (60 min. after administration) came out at 79 ± 30%; the “ACE Percent Inhibition, mean ± SD” value (120 min. after administration) came to 76 ± 5%; the “ACE Percent Inhibition, mean ± SD” value (240 min. after administration) amounted to 88 ± 3%.
`CCCCCCCSC[C@H](NC(C)C(=O)N1CCC[C@H]1C(=O)OCC)C(=O)OCC` (stereo partly drawn) [Example 40]: the “ACE Percent Inhibition, mean ± SD” value was 37 ± 19% (15 min. after administration), 55 ± 18% (60 min. after administration), 57 ± 13% (120 min. after administration) and 70 ± 9% (240 min. after administration).
Taken in the same sequence, the figures for `CCCCCCCSC[C@H](NC(C)C(=O)N1CCC[C@H]1C(=O)OCc1ccccc1)C(=O)OCC` (stereo partly drawn) [Example 42] were 27 ± 1%, 17 ± 18%, 57 ± 7% and 66 ± 7%.
On to `CCCCCCCCSC[C@H](NC(C)C(=O)N1CCC[C@H]1C(=O)O)C(=O)OCC` (stereo partly drawn) [Example 81, N-[(R)-1-ethoxycarbonyl-2-octylthio-ethyl]-alanyl-(S)-proline (β-isomer).L-arginine salt], for which the “ACE Percent Inhibition, mean ± SD” value stood at 14 ± 17% (15 min. after administration), 43 ± 18% (60 min. after administration), 47 ± 11% (120 min. after administration) and 55 ± 6% (240 min. after administration).
